Source: patent publication US20080160106A1, “Novel Uses for Proton Pump Inhibitors” (Istituto Superiore de Sanita, priority 2004, published 2008)
Entries after “also recorded” stand apart in the source; their conditions may differ.

Legend:
human melanoma cells [1] = assay: In vivo effects of omeprazole and cisplatin on tumour growth in the human/SCID mouse model; design: species or system CB.17 scid/scid mice; details: cisplatin alone, single dose 5 mg/kg i.p.
Method: Animals: CB.17 SCID/SCID female mice (Harlan, Italy) were used at 4-5 weeks of age and were kept under specific pathogen-free conditions. SCID mice were housed in microisolator cages, and all food, water and bedding were autoclaved prior to use.
Transplantation and growth of human tumours in SCID mice: Each mouse was injected subcutaneously (s.c.) into the right flank with 3×10^6 cells resuspended in 0.2 ml RPMI 1640 supplemented with 10% FCS. After transplantation, the size of each tumour was measured using callipers. The tumour weight was estimated according to Geran et al. (1972) using the formula:
Tumour weight (mg)=length (mm)×width^2 (min)/2.
Mice treatment: Omeprazole (Astra-Zeneca, Italy) and pantoprazole (Sigma Tau) were administered at a dose of 75 mg/kg by gavage as previously described (Watson and Smith, 2001), as a suspension in PBS1X. Lansoprazole (Pharmacia, Sweden) and rabeprazole (Janssen) were administered at a dose of 25 mg/kg by gavage as previously described (Watson and Smith, 2001), as a suspension in PBS1X.
Cisplatin (Aventis, France) was administered intraperitoneally (i.p.) at a dose of 5 mg/kg (Son and Huang 1994).
Other: unless otherwise specified, other parameters are as set out in Examples 1 and 2, above.

[2] = test system: human melanoma cells resistant to cisplatin; assay: Effects of omeprazole on cisplatin resistance in vitro (cisplatin dose response curve); assay type: cell-based; details: without cisplatin
Method: Cytotoxicity assay: Cytotoxicity was evaluated using the Trypan blue exclusion method after treatment with each chemotherapeutic drug. Briefly, after treatment, cells growing in suspension were collected, centrifuged and resuspended in PBS1X. Alternatively, cells growing in adherence were collected, pooling both adherent (live) after trypsinisation and in suspension (assumed dead) cells. Cells were thus centrifuged (10 minutes at 1500 rpm) and resuspended in PBS1X. An aliquot of the cell suspension was diluted 1:1 (v/v) with 0.4% trypan blue. After 5 minutes, cells were loaded on a haemocytometer (Neubauer) and both live (not stained) and dead (blue stained) cells were counted under a light microscope. Cell viability was assessed calculating the percentage of dead cells using the formula:
% dead cells=(no. dead cells/no. dead cells+no. live cells)×100.
Drugs: The PPIs were as in Example 1, above. Cisplatin (Aventis, France) was resuspended in PBS1X at a stock concentration of 1 mg/ml, and stored at −20° C. Both stock solutions were thawed immediately before use and not frozen again. 5-Fluorouracil (Teva Pharma, Holland) was supplied in the form of a solution at a concentration of 50 mg/ml, and was stored at r.t. as indicated by the supplier. […]

human melanoma cells [3] = assay: Cytotoxic effect of omeprazole in vitro, dose response curve (Trypan blue exclusion; Live/Dead assay); assay type: cell-based; details: 0.01-10 μg/ml
Method: Tumour cells: Human tumour cells (24 melanoma cell lines, 2 colon adenocarcinoma cell lines and 2 breast cancer cell lines) obtained from a primary tumour were cultured in buffered (with bicarbonate) or not buffered (without bicarbonate) RPMI 1640 medium enriched with 10% foetal bovine serum and antibiotics in a humidified 5% C02 and 95% air atmosphere.
Dose response curves: Tumour cells, growing in suspension, were plated at 1.5×10^5/ml, in 24 wells cell culture plate (Costar). Tumour cells growing in adherence were plated at 3×10^4 cells/well in 24 wells cell culture plate. Each dilution was tested at least in triplicate in each experiment.
Cytotoxicity assay: Cytotoxicity was evaluated using the Trypan blue exclusion method after treatment with each chemotherapeutic drug. Briefly, after treatment, cells growing in suspension were collected, centrifuged and resuspended in PBS1X. Alternatively, cells growing in adherence were collected, pooling both adherent (live) after trypsinisation and in suspension (assumed dead) cells. […] After 5 minutes, cells were loaded on a haemocytometer (Neubauer) and both live (not stained) and dead (blue stained) cells were counted under a light microscope. Cell viability was assessed calculating the percentage of dead cells using the formula: […]
Live/Dead Viability/Cytotoxicity Assay®. This assay (Molecular Probes, OR, USA) provides a two colour fluorescence cell viability assay that is based on the simultaneous determination of live and dead cells with two probes (Calcein AM and Ethidium homodimer 1) that measure two recognised parameters of cell viability—intracellular esterase activity and plasma membrane integrity. Live cells were distinguished by the presence of ubiquitous intracellular esterase activity, determined by the enzymatic conversion of the virtually non-fluorescent cell permeant Calcein AM to the intensely fluorescent calcein (ex/em 495 nm/515 nm), which is retained in the cell. […] The samples were analysed with a FACScan cytometer (Becton Dickinson) equipped with a 488 argon laser. […]

N.N.[Cl][Pt][Cl] [cisplatin]
tumour growth (human melanoma cells [1]): did not show a significant effect on tumour growth; also recorded: almost ineffective if administered alone

COc1ccc2[nH]c([S+]([O-])Cc3ncc(C)c(OC)c3C)nc2c1 (stereo not shown) [omeprazole]
cytotoxic effect of omeprazole alone [2]: did not exhibit any cytotoxic effect | cytotoxic effect (% dead cells) (human melanoma cells [3]; buffered neutral medium pH 7.2): no apparent cytotoxic effect | cytotoxic effect (% dead cells) (human melanoma cells [3]; not buffered, slightly acidic medium): cytotoxic in a dose-dependent manner only for tumour cells grown in slightly acidic medium; also recorded: markedly exerted a cytotoxic effect on tumour cells, in a dose-dependent manner
